Target: T1, endothelin converting enzyme (ECE) (Oryctolagus cuniculus, UniProt A0A5F9CTJ8)
T1 construct: The left saphenous artery was removed and cleaned of the surrounding tissue, cut into 2-3 mm length rings; from tissue; host or cells: left saphenous artery rings of male New Zealand rabbits
T1 sequence (A0A5F9CTJ8 1-783): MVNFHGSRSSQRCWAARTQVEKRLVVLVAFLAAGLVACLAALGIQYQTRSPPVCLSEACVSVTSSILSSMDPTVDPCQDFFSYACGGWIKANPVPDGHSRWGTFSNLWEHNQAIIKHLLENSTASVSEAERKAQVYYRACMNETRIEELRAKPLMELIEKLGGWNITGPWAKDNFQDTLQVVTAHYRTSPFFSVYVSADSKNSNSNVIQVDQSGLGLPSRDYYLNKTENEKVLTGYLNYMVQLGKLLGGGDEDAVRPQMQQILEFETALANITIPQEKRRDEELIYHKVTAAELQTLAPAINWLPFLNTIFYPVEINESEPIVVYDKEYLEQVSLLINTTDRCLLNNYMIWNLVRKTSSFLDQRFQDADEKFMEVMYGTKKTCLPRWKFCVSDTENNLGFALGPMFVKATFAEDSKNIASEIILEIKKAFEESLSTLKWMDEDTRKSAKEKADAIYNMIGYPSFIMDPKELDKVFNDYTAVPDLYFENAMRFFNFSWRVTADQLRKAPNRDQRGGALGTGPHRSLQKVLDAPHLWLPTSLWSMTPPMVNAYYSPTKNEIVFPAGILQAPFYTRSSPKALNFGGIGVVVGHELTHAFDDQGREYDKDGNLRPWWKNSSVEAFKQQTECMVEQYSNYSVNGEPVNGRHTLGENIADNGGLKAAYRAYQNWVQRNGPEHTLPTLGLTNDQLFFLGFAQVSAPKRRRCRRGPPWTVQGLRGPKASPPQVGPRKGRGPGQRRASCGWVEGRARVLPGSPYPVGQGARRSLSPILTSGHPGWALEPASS
Experiment: In vitro ECE-inhibitory activity (inhibition of Big endothelin response in rabbit left saphenous artery rings)
Format: cell-based, New Zealand rabbits
Details: human Big endothelin 3×10^-8 M, compound contact 30 minutes
Description: Male New Zealand rabbits (2.5-3 Kg) were sacrificed with an excess of pentobarbital and blood was drawn. […] This solution was composed of (mM); NaCl, 118; KCl, 4.7; CaCl2, 2.5; KH2 PO4, 1.2; MgSO4, 1.2; NaHCO3, […]; glucose, 11. The preparations were kept under tension and readjusted to 1 g during the equilibration period (1 hour).
After said period, the preparations were exposed to a submaximal concentration of norepinephrine 1 μM which was repeated every 30 minutes until the response was stable. A concentration of acetylcholine 10 μM on the contraction of norepinephrine verified the presence of the endothelium.
After 30 minutes from the last contraction due to norepinephrine, a concentration of human Big endothelin 3×10^-8 M was administered. […] The percentage of ECE-inhibition was expressed as IC50 value (nM).

## CC(C)C[C@H](NP(=O)(O)O[C@@H]1O[C@@H](C)[C@H](O)[C@@H](O)[C@H]1O)C(=O)N[C@@H](Cc1c[nH]c2ccccc12)C(=O)O [Phosphoramidon, N-[N-[[(6-deoxy-α-L-mannopyranosyl)oxy]hydroxyphos-phinyl]-l-leucyl]-L-tryptophan]
  IC50: 50 nM
